Assay results published in article PMC12677599 (Advanced Science, 2025).
Where a SMILES comes first, the peptide text is derived from it. Where no end group is shown, it is not given here. [ ]: non-standard residue; d: D form. The star is where a group is joined. PEG4 = NCCOCCOCCOCCOCCC(=O)O; Piperidide = C1CCN(*)CC1

Tests used:
[1] = test system: H838 cell line; assay type: cell-based; conditions: 24 h
Procedure: (§1) MTT assay was conducted as previously described.^[ [44] ^] Tumor cell lines (NCI‐H460, NCI‐H838, HT‐1080, MCF‐7, PC‐3, U‐251‐MG, and U‐87 MG) were seeded in 96‐well plates at a density of 8000 cells per well in a volume of 100 µL and cultured for 24 h. Normal cell lines (HaCaT, HMEC‐1, MRC‐5, and HEK‐293) were seeded in 96‐well plates at a density of 10 000 cells per well in a volume of 100 µL and cultured for 48 h. After that, only tumor cell lines were starved with 100 µL of SFM for a further 4–6 h. Subsequently, cells were treated with 100 µL of compound solutions with different concentrations for 24 h. Cells treated with SFM and 0.5% DMSO in SFM served as blank control and growth control, respectively. Ten µL of MTT solution (5 mg mL^−1) was added to each well, followed by an additional incubation period of 2 h for tumor cells and 4 h for normal cells. Finally, the solvent in each well was swapped with 100 µL of DMSO to dissolve the formazan crystals. The absorbance was measured by the plate reader at 570 nm.
(§2) The cell viability was calculated (1) Cellviability%=ODSamplegroup−ODBlank/ODGrowthgroup−ODBlank×100%

[2] = test system: HMEC-1 normal cell line; assay type: cell-based; conditions: 24 h
Procedure: as §1, §2

[3] = test system: HT-1080 cell line; assay type: cell-based; conditions: 24 h
Procedure: as §1, §2

[4] = test system: HaCaT normal cell line; assay type: cell-based; conditions: 24 h
Procedure: as §1, §2

[5] = test system: MRC-5 normal cell line; assay type: cell-based; conditions: 24 h
Procedure: as §1, §2

[6] = test system: H460 cell line; assay: cells; assay type: cell-based; conditions: 24 h
Procedure: as §1, §2

[7] = test system: HEK-293 normal cell line; assay: cells; assay type: cell-based; conditions: 24 h
Procedure: as §1, §2

[8] = test system: erythrocytes; assay type: cell-based; conditions: red cells of horse, 2 h
Procedure: Defibrinated horse blood (1 mL) was washed 3 times with 0.9% NaCl solution to remove plasma and then resuspended in 20 mL of 0.9% NaCl solution to obtain a red blood cell (RBC) suspension. Aliquots of the RBC suspension (100 µL) were incubated with 100 µL of compound solutions at concentrations ranging from 100 to 1.5625 µM (twofold serial dilution) for 2 h at 37 °C. RBCs treated with 0.9% NaCl solution and 1% Triton X‐100 solution served as blank and positive controls, respectively. Subsequently, the samples were centrifuged at 900 × g for 10 min, and the absorbance of the supernatant was measured at 570 nm.
The hemolysis ratio was calculated as (2) Hemolysis%=ODSamplegroup−ODBlank/ODPositivegroup−ODBlank×100%

[9] = test system: 5-Fluorouracil-resistance H460 cell line; assay type: cell-based; conditions: 24 h
Procedure: as §1
(§3) Wild type H460 cells were cultured in a T‐75 flask and exposed to 30 µM of cisplatin. Cells were passed when the confluency reached 90%. The IC50 value of cisplatin on this cell line was evaluated every two passages. After the IC50 value was higher than 500 µM, the cultured medium was changed to normal CGM, and the cell line was cultured for another three passages. The IC50 value was evaluated again to make sure the resistance was stable. The other three resistance cell lines establishment process was similar. […] Parental NCI‐H460 cells were exposed to 10 µM 5‐fluorouracil, 2.5 µM paclitaxel, or 2.5 µM etoposide to generate 5‐fluorouracil‐resistant, paclitaxel‐resistant, and etoposide‐resistant cell lines, respectively.

[10] = test system: Cisplatin-resistance H460 cell line; assay type: cell-based; conditions: 24 h
Procedure: as §1, §3

[11] = test system: Etoposide-resistance (DR-EPT) H460 cell line; assay type: cell-based; conditions: 24 h
Procedure: as §1, §3

[12] = test system: Paclitaxel-resistance (DR-PTX) H460 cell line; assay type: cell-based; conditions: 24 h
Procedure: as §1, §3

[13] = Compound remaining evaluation in human serum; assay type: in vitro ADME; conditions: 50% human serum, 37 °C, HPLC peak area, n = 2; up to 6 h (239-4-Ac) or 24 h
Procedure: Compound solutions (50 µL, 3 mM) were mixed with human serum (50 µL) and incubated for 0, 2, 4, 6, 12, and 24 h at 37 °C. Ethanol (250 µL) was added to precipitate serum proteins, and the samples were centrifuged at 14 000 × g for 20 min at 4 °C. Subsequently, 150 µL of supernatant of each sample was analyzed with analytical HPLC and ESI‐MS/MS. HPLC condition: gradient: 100% solution A to 0% solution A from 0 to 60 min; flow rate: 1 mL min^−1; detector wavelength: 214 nm. Each sample had two replicates.
The compound remaining ratio was calculated as (7) Compoundremaining%=CompoundPeakAreanotat0h/CompoundPeakAreaat0h×100%

| Molecule | IC50 [1] | IC50 [2] | IC50 [3] | IC50 [4] | IC50 [5] | IC50 [6] | IC50 [7] | HC10 (concentration causing 10% of erythrocytes lysis) [8] | IC50 [9] | IC50 [10] | IC50 [11] | IC50 [12] | degradation in human serum, comparison in words [13] |
| --- | --- | --- | --- | --- | --- | --- | --- | --- | --- | --- | --- | --- | --- |
| FFPKIFDDLSSILPKIL-NH2 [compound 266] | > 100 µM | > 100 µM | > 100 µM | > 100 µM | > 100 µM | > 100 µM | > 100 µM | >100 µM |  |  |  |  |  |
| CC[C@H](C)[C@H](NC(=O)[C@H](CCCCN)NC(=O)[C@@H]1CCCN1C(=O)[C@H](CC(C)C)NC(=O)[C@@H](NC(=O)[C@H](CO)NC(=O)[C@H](CCC(=O)N1CCCCC1)NC(=O)[C@H](CC(C)C)NC(=O)[C@H](CC(=O)O)NC(=O)[C@H](CC(=O)O)NC(=O)[C@H](Cc1ccccc1)NC(=O)[C@@H](NC(=O)[C@H](CCCCN)NC(=O)[C@@H]1CCCN1C(=O)[C@H](Cc1ccccc1)NC(=O)[C@H](Cc1ccccc1)NC(=O)[C@H](CCCCN)NC(=O)[C@H](C)N)[C@@H](C)CC)[C@@H](C)CC)C(=O)N[C@@H](CC(C)C)C(=O)NCC(=O)N1CCC[C@H]1C(=O)N[C@@H](CC(C)C)C(=O)NCC(=O)N[C@@H](CC(C)C)C(=O)N[C@@H](C)C(=O)NCC(=O)NCCOCCOCCOCCOCCC(=O)NCCOCCOCCOCCOCCC(=O)NCCOCCOCCOCCOCCC(=O)NCCOCCOCCOCCOCCC(N)=O [compound 247] (H-AKFFPKIFDDLE(Piperidide)SILPKILGPLGLAG[PEG4][PEG4][PEG4][PEG4]-NH2) |  | > 100 µM |  | > 100 µM | > 100 µM | 29.2 ± 1.33 µM | 51.9 ± 5.64 µM | >100 µM |  |  |  |  |  |
| FFPLIFGALSSILPKIL-NH2 [compound 111, Temporin‐HLa] | 11 ± 1.06 µM | 13.5 ± 0.8 µM | 7.37 ± 0.7 µM | 13.6 ± 0.91 µM | 26.3 ± 2.59 µM | 6.03 ± 0.18 µM | 8.03 ± 1.1 µM | 6.59 µM | 5.14 ± 0.22 µM | 5.24 ± 0.15 µM | 5.17 ± 0.16 µM | 5.54 ± 0.04 µM |  |
| CC[C@H](C)[C@H](NC(=O)[C@H](CCCCN)NC(=O)[C@@H]1CCCN1C(=O)[C@H](CC(C)C)NC(=O)[C@@H](NC(=O)[C@H](CO)NC(=O)[C@H](CCC(=O)N1CCCCC1)NC(=O)[C@H](CC(C)C)NC(=O)[C@H](CC(=O)O)NC(=O)[C@H](CC(=O)O)NC(=O)[C@H](Cc1ccccc1)NC(=O)[C@@H](NC(=O)[C@H](CCCCN)NC(=O)[C@@H]1CCCN1C(=O)[C@H](Cc1ccccc1)NC(=O)[C@H](Cc1ccccc1)NC(=O)[C@H](CCCCNC(C)=O)NC(=O)[C@H](C)N)[C@@H](C)CC)[C@@H](C)CC)C(=O)N[C@@H](CC(C)C)C(N)=O [239-4-Ac] (H-AK(Ac)FFPKIFDDLE(Piperidide)SILPKIL-NH2) |  |  |  |  |  |  |  |  |  |  |  |  | significantly more prone to degradation |
| FFPKIFDDLFSILPKIL-NH2 [compound 228] | 26.4 ± 1.78 µM | 30.7 ± 3.14 µM | 30.5 ± 6.05 µM | 34 ± 2.66 µM | 34.1 ± 2.32 µM | 17.5 ± 0.91 µM | 13.8 ± 1.42 µM | 14.57 µM |  |  |  |  |  |
